PubChem BioAssay (NCI)
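Five compound concentrations were applied to cells in 96-well plates for 48 hours; endpoints were derived by simple linear interpolation of the resulting dose-response curve. TGI is the concentration that stops growth completely.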

Experiments:
Test in all cases: NCI-60 cell line screen, 48 h
[1] = tested on: 786-0 renal
[2] = tested on: A498 renal
[3] = tested on: A549 NSCLC
[4] = tested on: ACHN renal
[5] = tested on: BT-549 breast
[6] = tested on: CAKI-1 renal
[7] = tested on: CCRF-CEM leukemia
[8] = tested on: COLO 205 colon
[9] = tested on: DU-145 prostate
[10] = tested on: EKVX NSCLC
[11] = tested on: HCC-2998 colon
[12] = tested on: HCT-116 colon
[13] = tested on: HCT-15 colon
[14] = tested on: HL-60(TB) leukemia
[15] = tested on: HOP-62 NSCLC
[16] = tested on: HOP-92 NSCLC
[17] = tested on: HS 578T breast
[18] = tested on: HT29 colon
[19] = tested on: IGROV1 ovarian
[20] = tested on: K-562 leukemia
[21] = tested on: KM12 colon
[22] = tested on: LOX IMVI melanoma
[23] = tested on: M14 melanoma
[24] = tested on: MALME-3M melanoma
[25] = tested on: MCF7 breast
[26] = tested on: MDA-MB-231 breast
[27] = tested on: MDA-MB-435
[28] = tested on: MDA-N
[29] = tested on: MOLT-4 leukemia
[30] = tested on: NCI-H226 lung
[31] = tested on: NCI-H23 lung
[32] = tested on: NCI-H460 lung
[33] = tested on: NCI-H522 lung
[34] = tested on: NCI/ADR-RES ovarian
[35] = tested on: OVCAR-3 ovarian
[36] = tested on: OVCAR-4 ovarian
[37] = tested on: OVCAR-5 ovarian
[38] = tested on: OVCAR-8 ovarian
[39] = tested on: PC-3 prostate
[40] = tested on: RPMI-8226 leukemia
[41] = tested on: RXF 393 renal
[42] = tested on: SF-268 CNS
[43] = tested on: SF-295 CNS
[44] = tested on: SF-539 CNS
[45] = tested on: SK-MEL-2 melanoma
[46] = tested on: SK-MEL-28 melanoma
[47] = tested on: SK-MEL-5 melanoma
[48] = tested on: SK-OV-3 ovarian
[49] = tested on: SN12C renal
[50] = tested on: SNB-19 CNS
[51] = tested on: SNB-75 CNS
[52] = tested on: SR leukemia
[53] = tested on: SW-620 colon
[54] = tested on: T-47D breast
[55] = tested on: TK-10 renal
[56] = tested on: U251 CNS
[57] = tested on: UACC-257 melanoma
[58] = tested on: UACC-62 melanoma
[59] = tested on: UO-31 renal

Measured: TGI

CN1CCCC2C(c3ccccc3)C(C3=NCCCC3)C(c3ccccc3)CC21 (configuration not stated)
37.6 µM: [20] | [24]
32.4 µM: [58]
55.2 µM: [22]
31.7 µM: [47]
35 µM: [57]
40.4 µM: [23]
41.4 µM: [28]
54.1 µM: [40]
66.1 µM: [8]
38 µM: [51]
96.7 µM: [17]
67.6 µM: [18]
31.3 µM: [44]
31.4 µM: [11]
54.5 µM: [33]
36.6 µM: [27]
36.2 µM: [46]
not listed: [59]
> 100 µM: all other assays above

COC(=O)C1C2OC(C)(C)OC2CN1S(=O)(=O)c1ccc(C)cc1 (configuration not stated)
41.1 µM: [30]
> 100 µM: all other assays above
